The numbers were not newly measured in patent publication US20100080846A1, “DIPYRIDAMOLE AND […] ACID FORMULATIONS AND PROCESS FOR PREPARING SAME” (priority 2008, published 2010), which cites them from elsewhere.

Molecules are shown by their SMILES.

For the series the following is noted: above a pH of 4.

Take `OCCN(CCO)c1nc(N2CCCCC2)c2nc(N(CCO)CCO)nc(N3CCCCC3)c2n1` [Dipyridamole, 2,6-bis-(diethanolamino)-4,8-dipiperidino-(5,4-d)-pyrimidine]: the solubility in water result is recorded as “practically insoluble”.
